The source of these data is patent US20260201008A1, “SECRETIN-DERIVED GLP1R SELECTIVE AGONISTS” (GUBRA A/S, priority 2023, published 2026).

Numbered stars: 1 amine (or outer) side, 2 acyl side, 3 side chain; on linkers, the order of the positions; unused ones are H or OH. Square brackets hold non-standard residues; d marks the D form. Side chains are listed from the residue outwards. Peptide text beside a SMILES is read from it. * marks the point of attachment. C20 diacid = O=C(O)CCCCCCCCCCCCCCCCCCC(=O)*; γGlu = O=C(O)[C@H](CCC(=O)[*:2])N[*:1]; AEEA = NCCOCCOCC(=O)O; Aib = CC(C)(N)C(=O)O

Data set [1] can be described thus: Fibril formation of crude library peptides (Thioflavin T). More on the design: key: average ThT fluorescence emission at 480 nm (ex 450 nm), raw units. Type of data set: physicochemical. Particulars: Physical stability of peptides. The gist of the method:
(§1)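 Turbidity is the absorbance at 600 nm, taken before heating. Fibril signal is the mean ThT emission at 480 nm (450 nm excitation), read every 10 min over 72 h at 40° C with 700 rpm shaking between reads. Peptides at 267 μM, pH 4.0 acetate or pH 7.0 phosphate buffer (50 mM), 4 μM ThT final.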

For another data set, the target named is SCTR (Homo sapiens, UniProt P47872). The experiment in a line: hSCTR potency, cAMP accumulation in CHO-K1 cells stably overexpressing hSCTR. Type of data set: cell-based. Set-up: alternatively Euroscreen ES-712-AF; FAST-0161L; host or cells: CHO-K1. As to conditions: cAMP accumulation, CHO-K1 cells overexpressing hSCTR; read-out: hSCTR pEC50 (converted). Put shortly:
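EC50 derived from variable-slope nonlinear regression on 11-point, 3-fold series run in duplicate (crude peptides: 5 points, 10-fold, n=1). Compound stimulation lasted 30 min at room temperature in casein/IBMX-containing DPBS (0.05%, 0.5 mM), 2000 cells/well; cAMP detected by time-resolved FRET after one hour.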
For orientation: Changes in cAMP serve as a functional read-out for many G protein-coupled receptors.

Data set [2] is described as follows: Turbidity of crude library peptides (absorbance at 600 nm). The class given is physicochemical. As to conditions: Physical stability of peptides. Put shortly:
as §1

For a further data set, the target named is GLP1R (Homo sapiens, UniProt P43220). The experiment in a line: hGLP1R potency, cAMP accumulation in CHO-K1 cells stably overexpressing hGLP1R. Type of data set: cell-based. More on the design: host or cells: CHO-K1. As to conditions: for SCTR EC50/GLP1R EC50 ratio: selectivity for hGLP1R over hSCTR, cAMP accumulation in CHO-K1 cells; for EC50: cAMP accumulation, CHO-K1 cells overexpressing hGLP1R, read-out: hGLP1R pEC50 (converted). The gist of the method:
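EC50 derives from variable-slope nonlinear regression of cAMP HTRF signal, with purified peptides tested as 11 three-fold dilutions in duplicate. Assay: hGLP1R-overexpressing CHO-K1 cells, 0.5 mM IBMX, 0.05% casein in DPBS, 30 min room-temperature stimulation, GLP-1(7-36) as reference agonist.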

Chain of GLP1R (P43220 24-463): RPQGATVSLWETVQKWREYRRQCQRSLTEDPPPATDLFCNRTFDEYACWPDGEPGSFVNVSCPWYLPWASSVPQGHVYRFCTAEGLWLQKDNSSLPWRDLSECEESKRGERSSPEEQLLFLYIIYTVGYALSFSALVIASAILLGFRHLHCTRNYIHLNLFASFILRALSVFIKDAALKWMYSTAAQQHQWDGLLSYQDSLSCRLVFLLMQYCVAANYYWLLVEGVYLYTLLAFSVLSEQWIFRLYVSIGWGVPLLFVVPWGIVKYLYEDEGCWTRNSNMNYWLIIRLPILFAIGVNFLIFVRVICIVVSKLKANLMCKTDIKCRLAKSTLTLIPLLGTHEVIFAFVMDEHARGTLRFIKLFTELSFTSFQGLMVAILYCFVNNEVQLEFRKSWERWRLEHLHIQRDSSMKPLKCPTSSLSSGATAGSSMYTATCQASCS
Chain of SCTR (P47872 23-440): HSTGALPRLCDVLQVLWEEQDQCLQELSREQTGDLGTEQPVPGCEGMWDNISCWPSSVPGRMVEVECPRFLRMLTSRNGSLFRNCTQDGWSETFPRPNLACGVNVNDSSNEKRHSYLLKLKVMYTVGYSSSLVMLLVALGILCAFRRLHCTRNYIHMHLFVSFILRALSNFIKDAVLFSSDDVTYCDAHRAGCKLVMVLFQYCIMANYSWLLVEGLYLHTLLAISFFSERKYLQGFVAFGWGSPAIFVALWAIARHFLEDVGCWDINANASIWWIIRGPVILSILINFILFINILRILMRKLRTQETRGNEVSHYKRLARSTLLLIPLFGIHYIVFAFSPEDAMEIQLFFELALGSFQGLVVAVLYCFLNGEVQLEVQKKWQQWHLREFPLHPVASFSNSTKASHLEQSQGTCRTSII

In data set [1], `CC(C)C[C@H](NC(=O)[C@H](Cc1ccccc1)NC(=O)[C@H](CCCNC(=N)N)NC(=O)[C@H](CCC(N)=O)NC(=O)[C@@H](NC(=O)C(C)(C)NC(=O)[C@H](C)NC(=O)[C@H](CCC(=O)O)NC(=O)[C@H](CCC(=O)O)NC(=O)[C@H](CCCCNC(=O)COCCOCCNC(=O)COCCOCCNC(=O)CC[C@H](NC(=O)CCCCCCCCCCCCCCCCCCC(=O)O)C(=O)O)NC(=O)[C@H](CC(C)C)NC(=O)[C@H](Cc1ccc(O)cc1)NC(=O)[C@H](CO)NC(=O)[C@@H](NC(=O)[C@H](CC(=O)O)NC(=O)[C@H](CO)NC(=O)[C@@H](NC(=O)[C@H](Cc1ccccc1)NC(=O)[C@@H](NC(=O)CNC(=O)[C@H](CCC(=O)O)NC(=O)C(C)(C)NC(=O)[C@@H](N)Cc1c[nH]cn1)[C@@H](C)O)[C@@H](C)O)C(C)C)[C@@H](C)O)C(=O)N[C@@H](CCC(=O)O)C(=O)N[C@@H](Cc1c[nH]cn1)C(=O)N[C@@H](CC(C)C)C(=O)N[C@H](C(N)=O)C(C)C` [compound 162] (H-H[Aib]EGTFTSDVSYLK([AEEA-AEEA-γGlu-C20 diacid])EEA[Aib]TQRFLEHLV-NH2) displayed a Fibril formation of 4281. Besides, the EC50 on SCTR is 126 nM. Further, the “Turbidity (pH 7)” value in data set [2] is 0.08. Moreover, on GLP1R, the “SCTR EC50/GLP1R EC50 ratio” value worked out at 178176.
As to `CC(C)C[C@H](NC(=O)[C@H](Cc1ccccc1)NC(=O)[C@H](CCCNC(=N)N)NC(=O)[C@H](CCC(N)=O)NC(=O)[C@H](CC(C)C)NC(=O)C(C)(C)NC(=O)[C@H](C)NC(=O)[C@H](CCC(=O)O)NC(=O)[C@H](CCC(=O)O)NC(=O)[C@H](CCCCNC(=O)COCCOCCNC(=O)COCCOCCNC(=O)CC[C@H](NC(=O)CCCCCCCCCCCCCCCCCCC(=O)O)C(=O)O)NC(=O)[C@H](CC(C)C)NC(=O)C(C)(C)NC(=O)[C@H](CO)NC(=O)[C@@H](NC(=O)[C@H](CC(=O)O)NC(=O)[C@H](CO)NC(=O)[C@@H](NC(=O)[C@H](Cc1ccccc1)NC(=O)[C@@H](NC(=O)CNC(=O)[C@H](CCC(=O)O)NC(=O)C(C)(C)NC(=O)[C@@H](N)Cc1c[nH]cn1)[C@@H](C)O)[C@@H](C)O)C(C)C)C(=O)N[C@@H](CCC(=O)O)C(=O)N[C@@H](Cc1c[nH]cn1)C(=O)N[C@@H](CC(C)C)C(=O)N[C@H](C(N)=O)C(C)C` [compound 163] (H-H[Aib]EGTFTSDVS[Aib]LK([AEEA-AEEA-γGlu-C20 diacid])EEA[Aib]LQRFLEHLV-NH2), the Fibril formation in data set [1] is 3983. Besides, the EC50 at SCTR was 39.8 nM; at GLP1R, 0.0126 nM. In data set [2], the “Turbidity (pH 7)” value is 0.08. For the same compound, the “SCTR EC50/GLP1R EC50 ratio” value at GLP1R came out at 3669.
In data set [1], `CC(C)C[C@H](NC(=O)[C@H](Cc1ccccc1)NC(=O)[C@H](CCCNC(=N)N)NC(=O)[C@H](CCC(N)=O)NC(=O)[C@H](CC(C)C)NC(=O)C(C)(C)NC(=O)[C@H](C)NC(=O)[C@H](CCC(=O)O)NC(=O)[C@H](CCC(=O)O)NC(=O)[C@H](Cc1c[nH]cn1)NC(=O)[C@H](CC(C)C)NC(=O)[C@H](Cc1ccc(O)cc1)NC(=O)[C@H](CO)NC(=O)[C@@H](NC(=O)[C@H](CC(=O)O)NC(=O)[C@H](CO)NC(=O)[C@@H](NC(=O)[C@H](Cc1ccccc1)NC(=O)[C@@H](NC(=O)CNC(=O)[C@H](CCC(=O)O)NC(=O)C(C)(C)NC(=O)[C@@H](N)Cc1c[nH]cn1)[C@@H](C)O)[C@@H](C)O)C(C)C)C(=O)N[C@@H](CCC(=O)O)C(=O)N[C@@H](CCCCNC(=O)COCCOCCNC(=O)COCCOCCNC(=O)CC[C@H](NC(=O)CCCCCCCCCCCCCCCCCCC(=O)O)C(=O)O)C(=O)N[C@@H](CC(C)C)C(=O)N[C@H](C(N)=O)C(C)C` [compound 164] (H-H[Aib]EGTFTSDVSYLHEEA[Aib]LQRFLEK([AEEA-AEEA-γGlu-C20 diacid])LV-NH2) showed a Fibril formation of 4789. Further, the EC50 at SCTR is 251 nM. Also, the “Turbidity (pH 7)” value in data set [2] was 0.08. Moreover, at GLP1R, the EC50 is 0.02 nM and the “SCTR EC50/GLP1R EC50 ratio” value is 11362.
For `CC(C)C[C@H](NC(=O)[C@H](Cc1ccccc1)NC(=O)[C@H](CCCNC(=N)N)NC(=O)[C@H](CCC(N)=O)NC(=O)[C@H](CC(C)C)NC(=O)C(C)(C)NC(=O)[C@H](C)NC(=O)[C@H](CCC(=O)O)NC(=O)[C@H](CCC(=O)O)NC(=O)[C@H](CCCCNC(=O)COCCOCCNC(=O)COCCOCCNC(=O)CC[C@H](NC(=O)CCCCCCCCCCCCCCCCCCC(=O)O)C(=O)O)NC(=O)[C@H](CC(C)C)NC(=O)[C@@H](NC(=O)[C@H](CO)NC(=O)[C@@H](NC(=O)[C@H](CC(=O)O)NC(=O)[C@H](CO)NC(=O)[C@@H](NC(=O)[C@H](Cc1ccccc1)NC(=O)[C@@H](NC(=O)CNC(=O)[C@H](CCC(=O)O)NC(=O)C(C)(C)NC(=O)[C@@H](N)Cc1c[nH]cn1)[C@@H](C)O)[C@@H](C)O)C(C)C)[C@@H](C)O)C(=O)N[C@@H](CCC(=O)O)C(=O)N[C@@H](Cc1c[nH]cn1)C(=O)N[C@@H](CC(C)C)C(=O)N[C@H](C(N)=O)C(C)C` [compound 165] (H-H[Aib]EGTFTSDVSTLK([AEEA-AEEA-γGlu-C20 diacid])EEA[Aib]LQRFLEHLV-NH2), in that order: 4038, 10 nM, 0.08, 0.00631 nM and 1693.
For `CC(C)C[C@H](NC(=O)[C@H](Cc1ccccc1)NC(=O)[C@H](CCCNC(=N)N)NC(=O)[C@H](CCC(N)=O)NC(=O)[C@H](CC(C)C)NC(=O)C(C)(C)NC(=O)[C@H](C)NC(=O)[C@H](CCC(=O)O)NC(=O)[C@H](CCC(=O)O)NC(=O)[C@H](CCCCNC(=O)COCCOCCNC(=O)COCCOCCNC(=O)CC[C@H](NC(=O)CCCCCCCCCCCCCCCCCCC(=O)O)C(=O)O)NC(=O)[C@H](CC(C)C)NC(=O)[C@H](Cc1ccc(O)cc1)NC(=O)[C@H](CO)NC(=O)[C@@H](NC(=O)[C@H](CC(=O)O)NC(=O)[C@H](CO)NC(=O)[C@@H](NC(=O)[C@H](Cc1ccccc1)NC(=O)[C@@H](NC(=O)CNC(=O)[C@H](CCC(=O)O)NC(=O)[C@H](C)NC(=O)[C@@H](N)Cc1c[nH]cn1)[C@@H](C)O)[C@@H](C)O)C(C)C)C(=O)N[C@@H](CCC(=O)O)C(=O)N[C@@H](Cc1c[nH]cn1)C(=O)N[C@@H](CC(C)C)C(=O)N[C@H](C(N)=O)C(C)C` [compound 166] (H-HAEGTFTSDVSYLK([AEEA-AEEA-γGlu-C20 diacid])EEA[Aib]LQRFLEHLV-NH2), in that order: 4253, 316 nM, 0.08, 0.00794 nM and 41476.
Take `CC(C)C[C@H](NC(=O)CNC(=O)[C@H](CO)NC(=O)[C@@H](NC(=O)[C@H](CC(=O)O)NC(=O)[C@H](CO)NC(=O)[C@@H](NC(=O)[C@H](Cc1ccccc1)NC(=O)[C@@H](NC(=O)CNC(=O)[C@H](CCC(=O)O)NC(=O)C(C)(C)NC(=O)[C@@H](N)Cc1c[nH]cn1)[C@@H](C)O)[C@@H](C)O)C(C)C)C(=O)N[C@@H](CCCCNC(=O)COCCOCCNC(=O)COCCOCCNC(=O)CC[C@H](NC(=O)CCCCCCCCCCCCCCCCCCC(=O)O)C(=O)O)C(=O)N[C@@H](CCC(=O)O)C(=O)N[C@@H](CCC(=O)O)C(=O)N[C@@H](C)C(=O)NC(C)(C)C(=O)N[C@@H](CC(C)C)C(=O)N[C@@H](CCC(N)=O)C(=O)N[C@@H](CCCNC(=N)N)C(=O)N[C@@H](Cc1ccccc1)C(=O)N[C@@H](CC(C)C)C(=O)N[C@@H](CCC(=O)O)C(=O)N[C@@H](Cc1c[nH]cn1)C(=O)N[C@@H](CC(C)C)C(=O)N[C@H](C(N)=O)C(C)C` [compound 167] (H-H[Aib]EGTFTSDVSGLK([AEEA-AEEA-γGlu-C20 diacid])EEA[Aib]LQRFLEHLV-NH2): the Fibril formation in data set [1] was found to be 4018. Besides, the EC50 at SCTR was 100 nM. Moreover, the “Turbidity (pH 7)” value in data set [2] came to 0.08. For the same compound, on GLP1R, the EC50 was 0.00631 nM and the “SCTR EC50/GLP1R EC50 ratio” value is recorded as 16446.
The compound `CC(C)C[C@H](NC(=O)[C@H](Cc1ccccc1)NC(=O)[C@H](CCCNC(=N)N)NC(=O)[C@H](CCC(N)=O)NC(=O)[C@H](CC(C)C)NC(=O)C(C)(C)NC(=O)[C@H](C)NC(=O)[C@H](CCC(=O)O)NC(=O)[C@H](CCC(=O)O)NC(=O)[C@H](CCCCNC(=O)COCCOCCNC(=O)COCCOCCNC(=O)CC[C@H](NC(=O)CCCCCCCCCCCCCCCCCCC(=O)O)C(=O)O)NC(=O)[C@H](CC(C)C)NC(=O)[C@H](Cc1ccc(O)cc1)NC(=O)[C@H](CO)NC(=O)[C@@H](NC(=O)[C@H](CC(=O)O)NC(=O)[C@H](CO)NC(=O)[C@@H](NC(=O)[C@H](Cc1ccccc1)NC(=O)[C@@H](NC(=O)CNC(=O)[C@H](CCC(=O)O)NC(=O)C(C)(C)NC(=O)[C@@H](N)Cc1c[nH]cn1)[C@@H](C)O)[C@@H](C)O)C(C)C)C(=O)N[C@@H](CCC(=O)O)C(=O)N[C@@H](Cc1c[nH]c2ccccc12)C(=O)N[C@@H](CC(C)C)C(=O)N[C@H](C(N)=O)C(C)C` [compound 169] (H-H[Aib]EGTFTSDVSYLK([AEEA-AEEA-γGlu-C20 diacid])EEA[Aib]LQRFLEWLV-NH2) returned a Fibril formation in data set [1] of 3552. In addition, the results for the EC50 at SCTR and on GLP1R were 501 nM and 0.0398 nM, respectively. Further, the “Turbidity (pH 7)” value in data set [2] came to 0.08. Besides, on GLP1R, the “SCTR EC50/GLP1R EC50 ratio” value was determined as 14974.
